Reference: PubChem BioAssay (NCI)
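Five compound concentrations were applied to cells in 96-well plates for 48 hours; endpoints were derived by simple linear interpolation of the resulting dose-response curve. Here, GI50 denotes the concentration required for 50% inhibition of growth. TGI: total growth inhibition.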

Columns and labels:
Assay in all cases: growth of human tumour cells (NCI), 48 h
[1] = tested on: HCC-2998 colon
[2] = tested on: HOP-62 NSCLC
[3] = tested on: HS 578T breast
[4] = tested on: MOLT-4 leukemia
[5] = tested on: NCI-H460 lung
[6] = tested on: SK-MEL-2 melanoma
[7] = tested on: SN12C renal
[8] = tested on: T-47D breast
[9] = tested on: TK-10 renal
[10] = tested on: U251 CNS

SMILES	GI50 [1]	TGI [1]	GI50 [2]	TGI [2]	GI50 [3]	TGI [3]	GI50 [4]	TGI [4]	GI50 [5]	TGI [5]	GI50 [6]	TGI [6]	GI50 [7]	TGI [7]	GI50 [8]	TGI [8]	GI50 [9]	TGI [9]	GI50 [10]	TGI [10]
CC(=O)N[C@@H](Cc1ccc(OP(=O)(O)O)cc1)C(=O)N[C@H]1CCC(=O)N2CCC[C@@H](C(=O)NCc3ccccc3)N2C1=O	> 25 µM	> 25 µM	> 25 µM	> 25 µM	> 25 µM	> 25 µM	> 25 µM	> 25 µM	> 25 µM	> 25 µM	> 25 µM	> 25 µM	> 25 µM	> 25 µM	> 25 µM	> 25 µM	> 25 µM	> 25 µM	> 25 µM	> 25 µM
COc1cc(C2CC(=O)Nc3c2c(C)nn3-c2nc3ccccc3[nH]2)cc(OC)c1O (stereo not given)	6.48 µM	35.7 µM	3.72 µM	17 µM	2.05 µM	7.7 µM	0.0427 µM	0.242 µM	3.19 µM	> 35.1 µM	2.23 µM	4.52 µM	3.98 µM	> 72.3 µM	3.45 µM	16.9 µM	2.84 µM	7.67 µM	3.49 µM	> 40.8 µM
C/C=C(\C)C(=O)O[C@H]1C=CC(=O)O[C@H]1COC(=O)[C@H](C)O	14.9 µM	30 µM	19.8 µM	35.4 µM	7.37 µM	26 µM	1.95 µM	5.22 µM	10.3 µM	29.1 µM	15.3 µM	41.4 µM	12.9 µM	28.3 µM	3.81 µM	19.2 µM	10.8 µM	24.3 µM	7.35 µM	21 µM
Cc1ccsc1-c1ccc2c(c1)COC2(CCCN(C)C)c1ccc(F)cc1 (stereo not given)	1.71 µM	3.25 µM	3.16 µM	12.8 µM	2.39 µM	9.07 µM	2.7 µM	8.43 µM	1.77 µM	3.49 µM	2.78 µM	7.48 µM	3.59 µM	15.5 µM	2.15 µM	6.92 µM	3.04 µM	12.8 µM	1.95 µM	4.24 µM
O=S(=O)(NCCCNc1cc(-c2cn(-c3ccccc3)nc2-c2cccc(O)c2)ccn1)c1ccc(Br)cc1	2 µM	3.78 µM	1.88 µM	4.59 µM	1.16 µM	4.82 µM	1.13 µM	3.73 µM	1.77 µM	3.72 µM	1.95 µM	3.84 µM	2.75 µM	9.8 µM	1.76 µM	6.38 µM	3.35 µM	10.2 µM	1.21 µM	4.44 µM
CN(C)CCOc1ccccc1NC1=C(Cl)C(=O)C(Nc2ccccc2OCCN(C)C)=C(Cl)C1=O	5.74 µM	> 21.6 µM	39.1 µM	> 100 µM	29.5 µM	> 83.1 µM	0.694 µM	1.91 µM	27.8 µM	> 96.4 µM	19.2 µM	> 57 µM	0.573 µM	1.21 µM	0.811 µM	3.16 µM	5.73 µM	12.4 µM	10.2 µM	39.5 µM
O=[N+]([O-])c1ccc2c(c1)C(c1ccccc1Cl)=Nc1c(n[nH]c1-c1cccnc1)N2	> 25 µM	> 25 µM	> 25 µM	> 25 µM	> 19.9 µM	> 25 µM	> 25 µM	> 25 µM	> 25 µM	> 25 µM	> 25 µM	> 25 µM	> 25 µM	> 25 µM	> 25 µM	> 25 µM	> 25 µM	> 25 µM	> 25 µM	> 25 µM
CC(=O)OCCCC#CC#Cc1cccc(=O)o1	16.6 µM	33.2 µM	15.5 µM	30.4 µM	25.8 µM	56.7 µM	6.59 µM	> 100 µM	20 µM	42.2 µM	40 µM	> 100 µM	19 µM	39.7 µM	20 µM	51.1 µM	13 µM	26.4 µM	23.9 µM	54.3 µM
CN(C)C=Nc1c(I)cc(I)c(CCC(=O)O)c1I	> 100 µM	> 100 µM	> 100 µM	> 100 µM	> 100 µM	> 100 µM	> 100 µM	> 100 µM	> 100 µM	> 100 µM	> 100 µM	> 100 µM	> 100 µM	> 100 µM	> 100 µM	> 100 µM	> 100 µM	> 100 µM	> 100 µM	> 100 µM
O=C1c2cc(F)ccc2-c2c1c1ccc([N+](=O)[O-])cc1c(=O)n2CCCBr	10.7 µM	> 100 µM	2.28 µM	8.64 µM	> 100 µM	> 100 µM	2.8 µM	14.2 µM	4.56 µM	> 100 µM	> 100 µM	> 100 µM	27.4 µM	> 100 µM	7.53 µM	> 100 µM	64.8 µM	> 100 µM	9.87 µM	> 100 µM
